Results reported in article PMC12807533 (Science (New York, N.Y.), 2025).

Tests used:
XanP (His-XanP) = system: T1, XanP (His-XanP)
T1 construct: gene XOC_0142
T1 sequence (G7TIV3 32-261 limits assumed): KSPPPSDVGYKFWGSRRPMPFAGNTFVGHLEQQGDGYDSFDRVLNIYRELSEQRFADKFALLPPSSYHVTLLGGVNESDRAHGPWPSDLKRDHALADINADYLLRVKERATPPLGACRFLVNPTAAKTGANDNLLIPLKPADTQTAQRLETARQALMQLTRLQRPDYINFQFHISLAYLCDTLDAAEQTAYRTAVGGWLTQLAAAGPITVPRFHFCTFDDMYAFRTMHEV

Sequence of AvrBs2 (AvrBs2-FLAG) (G7TIV7 1-714): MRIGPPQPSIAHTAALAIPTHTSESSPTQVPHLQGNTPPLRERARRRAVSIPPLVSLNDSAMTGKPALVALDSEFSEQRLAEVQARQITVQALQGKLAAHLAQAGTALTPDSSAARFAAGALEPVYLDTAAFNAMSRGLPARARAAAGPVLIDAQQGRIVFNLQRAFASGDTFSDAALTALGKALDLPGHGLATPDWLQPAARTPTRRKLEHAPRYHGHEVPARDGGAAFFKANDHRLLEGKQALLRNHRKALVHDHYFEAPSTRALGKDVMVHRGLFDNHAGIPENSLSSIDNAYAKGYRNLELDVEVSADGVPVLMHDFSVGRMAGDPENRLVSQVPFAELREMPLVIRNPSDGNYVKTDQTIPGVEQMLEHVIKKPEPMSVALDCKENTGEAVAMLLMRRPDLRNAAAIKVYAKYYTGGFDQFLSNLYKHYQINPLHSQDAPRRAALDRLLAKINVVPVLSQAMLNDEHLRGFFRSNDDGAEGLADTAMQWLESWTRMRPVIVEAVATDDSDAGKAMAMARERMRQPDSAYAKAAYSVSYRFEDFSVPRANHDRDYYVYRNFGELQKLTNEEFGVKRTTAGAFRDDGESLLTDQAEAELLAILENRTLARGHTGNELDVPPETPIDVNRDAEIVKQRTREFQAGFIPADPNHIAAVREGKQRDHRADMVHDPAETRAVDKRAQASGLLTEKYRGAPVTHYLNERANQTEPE

| SMILES | TLC of hydrolysis products (XanP (His-XanP)) | TLC and HILIC-ESI-MS of in vitro xanthosan synthesis (AvrBs2 (AvrBs2-FLAG)) |
| --- | --- | --- |
| O=P(O)(O)O[C@H]1O[C@H](CO)[C@H](O)[C@H](O)[C@H]1O [Gal-1-P] | the other product migrated similarly to Gal-1-P, but not Gal-6-P | – |
| O=P1(O)OC[C@H]2O[C@H](OP(=O)(O)OC[C@H]3O[C@H](O1)[C@H](O)[C@@H](O)[C@H]3O)[C@H](O)[C@@H](O)[C@H]2O [xanthosan, bis-(1,6)-cyclic dimeric α-D-galactose-phosphate] | – | AvrBs2 converts UDP-α-D-galactose into xanthosan |
